# Reference: article PMC8037182, “Solvothermal Synthesis of Multiple Dihydropyrimidinones at a Time as Inhibitors of Eg5” (Molecules, 2021)
# Tested on: Caco-2 cell line
# Assay: Cytotoxicity MTS assay, Caco-2 cell line
# Type: cell-based
# Settings: for OD490 Mean / OD490 Well 1 / OD490 Well 2 / OD490 Well 3: Caco-2 cell line
# Summary of the method: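 Steps: plate 1000 cells per well; incubate 24 h; add compound (final 0.5 to 100 µM) or 0.025% DMSO blank for 24 h; add MTS reagent, hold 2 h at 37 °C in 5% CO2; read A490; fit percent viability against concentration by non-linear regression to obtain IC50.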
smiles,measurement,setting,value
"CCOC(=O)C1=C(C)NC(=S)NC1c1cccc(O)c1 (stereo not shown) [Monastrol, monastrol, reference compound]",OD490 Mean,"0.5μM, first assay",0.6317
same,OD490 Well 1,"0.5μM, first assay",0.6883
same,OD490 Well 2,"0.5μM, first assay",0.6260
same,OD490 Well 3,"0.5μM, first assay",0.5808
same,OD490 Mean,"0.5μM, second assay",0.6461
same,OD490 Well 1,"0.5μM, second assay",0.6307
same,OD490 Well 2,"0.5μM, second assay",0.6567
same,OD490 Well 3,"0.5μM, second assay",0.6508
same,OD490 Mean,"0.5μM, third assay",0.6299
same,OD490 Well 1,"0.5μM, third assay",0.6325
same,OD490 Well 2,"0.5μM, third assay",0.6000
same,OD490 Well 3,"0.5μM, third assay",0.6531
same,OD490 Mean,"1μM, first assay",0.6316
same,OD490 Well 1,"1μM, first assay",0.6697
same,OD490 Well 2,"1μM, first assay",0.6037
same,OD490 Well 3,"1μM, first assay",0.6213
same,OD490 Mean,"1μM, second assay",0.6874
same,OD490 Well 1,"1μM, second assay",0.6746
same,OD490 Well 2,"1μM, second assay",0.7532
same,OD490 Well 3,"1μM, second assay",0.6345
same,OD490 Mean,"1μM, third assay",0.6466
same,OD490 Well 1,"1μM, third assay",0.6332
same,OD490 Well 2,"1μM, third assay",0.6854
same,OD490 Well 3,"1μM, third assay",0.6211
same,OD490 Mean,"10μM, first assay",0.6065
same,OD490 Well 1,"10μM, first assay",0.6414
same,OD490 Well 2,"10μM, first assay",0.6303
same,OD490 Well 3,"10μM, first assay",0.5477
same,OD490 Mean,"10μM, second assay",0.6609
same,OD490 Well 1,"10μM, second assay",0.6953
same,OD490 Well 2,"10μM, second assay",0.6962
same,OD490 Well 3,"10μM, second assay",0.5912
same,OD490 Mean,"10μM, third assay",0.5909
same,OD490 Well 1,"10μM, third assay",0.6012
same,OD490 Well 2,"10μM, third assay",0.6583
same,OD490 Well 3,"10μM, third assay",0.5132
same,OD490 Mean,"25μM, first assay",0.5366
same,OD490 Well 1,"25μM, first assay",0.5485
same,OD490 Well 2,"25μM, first assay",0.5284
same,OD490 Well 3,"25μM, first assay",0.5329
same,OD490 Mean,"25μM, second assay",0.5966
same,OD490 Well 1,"25μM, second assay",0.5969
same,OD490 Well 2,"25μM, second assay",0.6213
same,OD490 Well 3,"25μM, second assay",0.5715
same,OD490 Mean,"25μM, third assay",0.5678
same,OD490 Well 1,"25μM, third assay",0.5784
same,OD490 Well 2,"25μM, third assay",0.5810
same,OD490 Well 3,"25μM, third assay",0.5439
same,OD490 Mean,"50μM, first assay",0.4955
same,OD490 Well 1,"50μM, first assay",0.4127
same,OD490 Well 2,"50μM, first assay",0.5627
same,OD490 Well 3,"50μM, first assay",0.5110
same,OD490 Mean,"50μM, second assay",0.5572
same,OD490 Well 1,"50μM, second assay",0.594
same,OD490 Well 2,"50μM, second assay",0.5177
same,OD490 Well 3,"50μM, second assay",0.5598
same,OD490 Mean,"50μM, third assay",0.5174
same,OD490 Well 1,"50μM, third assay",0.5287
same,OD490 Well 2,"50μM, third assay",0.5021
same,OD490 Well 3,"50μM, third assay",0.5214
same,OD490 Mean,"100μM, first assay",0.4461
same,OD490 Well 1,"100μM, first assay",0.4497
same,OD490 Well 2,"100μM, first assay",0.4701
same,OD490 Well 3,"100μM, first assay",0.4184
same,OD490 Mean,"100μM, second assay",0.5109
same,OD490 Well 1,"100μM, second assay",0.5213
same,OD490 Well 2,"100μM, second assay",0.5306
same,OD490 Well 3,"100μM, second assay",0.4809
same,OD490 Mean,"100μM, third assay",0.4670
same,OD490 Well 1,"100μM, third assay",0.4321
same,OD490 Well 2,"100μM, third assay",0.4767
same,OD490 Well 3,"100μM, third assay",0.4922
same,IC50,"Homo sapiens, Caco-2, MTS assay, 24 h exposure",112 µM
